Laboratory results as given in PubChem BioAssay (NCI).
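Dose response: 5 concentrations. Exposure: 48 h. Format: 96-well plates. Endpoint: linear interpolation; highest concentration if not reached. TGI: total growth inhibition.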

Columns and labels:
Experiment in all cases: NCI anticancer screen, dose series, 48 h
SF-268 CNS = tested on: SF-268 CNS
DLD-1 colon = tested on: DLD-1 colon
MALME-3M melanoma = tested on: MALME-3M melanoma
LXFL 529 NSCLC = tested on: LXFL 529 NSCLC
DMS 114 small cell lung = tested on: DMS 114 small cell lung
SNB-78 CNS = tested on: SNB-78 CNS
A549 NSCLC = tested on: A549 NSCLC
OVCAR-3 ovarian = tested on: OVCAR-3 ovarian
COLO 205 colon = tested on: COLO 205 colon
U251 CNS = tested on: U251 CNS
SK-MEL-28 melanoma = tested on: SK-MEL-28 melanoma
NCI-H226 lung = tested on: NCI-H226 lung
TK-10 renal = tested on: TK-10 renal
786-0 renal = tested on: 786-0 renal
MOLT-4 leukemia = tested on: MOLT-4 leukemia
HCT-15 colon = tested on: HCT-15 colon
M19-MEL melanoma = tested on: M19-MEL melanoma
RXF-631 renal = tested on: RXF-631 renal
NCI-H522 lung = tested on: NCI-H522 lung
CCRF-CEM leukemia = tested on: CCRF-CEM leukemia
NCI-H460 lung = tested on: NCI-H460 lung
ACHN renal = tested on: ACHN renal
HOP-18 NSCLC = tested on: HOP-18 NSCLC
HOP-62 NSCLC = tested on: HOP-62 NSCLC
IGROV1 ovarian = tested on: IGROV1 ovarian
HCC-2998 colon = tested on: HCC-2998 colon
SNB-19 CNS = tested on: SNB-19 CNS
OVCAR-8 ovarian = tested on: OVCAR-8 ovarian
NCI-H23 lung = tested on: NCI-H23 lung
RXF 393 renal = tested on: RXF 393 renal
SF-295 CNS = tested on: SF-295 CNS
SNB-75 CNS = tested on: SNB-75 CNS
SK-MEL-2 melanoma = tested on: SK-MEL-2 melanoma
RPMI-8226 leukemia = tested on: RPMI-8226 leukemia
KM20L2 colon = tested on: KM20L2 colon
HL-60(TB) leukemia = tested on: HL-60(TB) leukemia
EKVX NSCLC = tested on: EKVX NSCLC
UACC-62 melanoma = tested on: UACC-62 melanoma
UO-31 renal = tested on: UO-31 renal
LOX IMVI melanoma = tested on: LOX IMVI melanoma
M14 melanoma = tested on: M14 melanoma
OVCAR-5 ovarian = tested on: OVCAR-5 ovarian
SK-OV-3 ovarian = tested on: SK-OV-3 ovarian
K-562 leukemia = tested on: K-562 leukemia
KM12 colon = tested on: KM12 colon
SF-539 CNS = tested on: SF-539 CNS
A498 renal = tested on: A498 renal
OVCAR-4 ovarian = tested on: OVCAR-4 ovarian
HT29 colon = tested on: HT29 colon
SW-620 colon = tested on: SW-620 colon
HCT-116 colon = tested on: HCT-116 colon
HOP-92 NSCLC = tested on: HOP-92 NSCLC
SN12C renal = tested on: SN12C renal
UACC-257 melanoma = tested on: UACC-257 melanoma
SK-MEL-5 melanoma = tested on: SK-MEL-5 melanoma
CAKI-1 renal = tested on: CAKI-1 renal
DMS 273 small cell lung = tested on: DMS 273 small cell lung
SR leukemia = tested on: SR leukemia

For `O=C(OC1CC(n2cc(F)c(=O)[nH]c2=O)OC1CSC(=O)c1ccccc1)c1ccccc1` (configuration not stated), the TGI (SF-268 CNS) was 68.8 µM, the TGI (DLD-1 colon) was greater than 100 µM and the TGI (MALME-3M melanoma) was 84.5 µM. The TGI (LXFL 529 NSCLC) was greater than 100 µM, the TGI (DMS 114 small cell lung) was greater than 100 µM and the TGI (SNB-78 CNS) was greater than 100 µM. For the same compound, the TGI (A549 NSCLC) was 92.4 µM, the TGI (OVCAR-3 ovarian) was 53.3 µM and the TGI (COLO 205 colon) was 88.7 µM. For the same compound, the TGI (U251 CNS) was 49.8 µM, the TGI (SK-MEL-28 melanoma) was greater than 100 µM and the TGI (NCI-H226 lung) was 75.9 µM. It also gave a TGI (TK-10 renal) greater than 100 µM, a TGI (786-0 renal) greater than 100 µM and a TGI (MOLT-4 leukemia) of 81.1 µM. For the same compound, the TGI (HCT-15 colon) was greater than 100 µM, the TGI (M19-MEL melanoma) was 67 µM and the TGI (RXF-631 renal) was 40.3 µM. It also gave a TGI (NCI-H522 lung) of 87 µM, a TGI (CCRF-CEM leukemia) greater than 100 µM and a TGI (NCI-H460 lung) greater than 100 µM. For the same compound, the TGI (ACHN renal) was greater than 100 µM, the TGI (HOP-18 NSCLC) was 97.4 µM and the TGI (HOP-62 NSCLC) was greater than 100 µM. The TGI (IGROV1 ovarian) was greater than 100 µM, the TGI (HCC-2998 colon) was 75.2 µM and the TGI (SNB-19 CNS) was greater than 100 µM. For the same compound, the TGI (OVCAR-8 ovarian) was greater than 100 µM, the TGI (NCI-H23 lung) was greater than 100 µM and the TGI (RXF 393 renal) was 81.1 µM. For the same compound, the TGI (SF-295 CNS) was greater than 100 µM, the TGI (SNB-75 CNS) was 65.6 µM and the TGI (SK-MEL-2 melanoma) was greater than 100 µM. It also gave a TGI (RPMI-8226 leukemia) of 57.4 µM, a TGI (KM20L2 colon) of 33.9 µM and a TGI (HL-60(TB) leukemia) of 53.3 µM. The TGI (EKVX NSCLC) was 90.5 µM, the TGI (UACC-62 melanoma) was greater than 100 µM and the TGI (UO-31 renal) was greater than 100 µM. For the same compound, the TGI (LOX IMVI melanoma) was greater than 100 µM, the TGI (M14 melanoma) was greater than 100 µM and the TGI (OVCAR-5 ovarian) was greater than 100 µM. For the same compound, the TGI (SK-OV-3 ovarian) was greater than 100 µM, the TGI (K-562 leukemia) was greater than 100 µM and the TGI (KM12 colon) was 91.2 µM. The TGI (SF-539 CNS) was greater than 100 µM, the TGI (A498 renal) was greater than 100 µM and the TGI (OVCAR-4 ovarian) was greater than 100 µM. It also gave a TGI (HT29 colon) of 34.4 µM, a TGI (SW-620 colon) greater than 100 µM and a TGI (HCT-116 colon) greater than 100 µM. It also gave a TGI (HOP-92 NSCLC) of 56 µM, a TGI (SN12C renal) greater than 100 µM and a TGI (UACC-257 melanoma) of 87.6 µM.

Compound `CN(C)Cc1cc(/C(=C(\C#N)c2ccccc2)c2ccc(O)cc2)ccc1O` has a TGI (SF-268 CNS) of 60.3 µM, a TGI (DLD-1 colon) of 86.1 µM and a TGI (MALME-3M melanoma) of 29.8 µM. It also gave a TGI (LXFL 529 NSCLC) of 34.7 µM, a TGI (DMS 114 small cell lung) of 29.4 µM and a TGI (SNB-78 CNS) of 94.9 µM. For the same compound, the TGI (A549 NSCLC) was greater than 100 µM, the TGI (OVCAR-3 ovarian) was 50.3 µM and the TGI (COLO 205 colon) was 31.9 µM. For the same compound, the TGI (SK-MEL-5 melanoma) was 28.9 µM, the TGI (U251 CNS) was 50.1 µM and the TGI (SK-MEL-28 melanoma) was 26.8 µM. For the same compound, the TGI (NCI-H226 lung) was 56.9 µM, the TGI (TK-10 renal) was 79.4 µM and the TGI (786-0 renal) was 35.6 µM. It also gave a TGI (MOLT-4 leukemia) of 39.3 µM, a TGI (HCT-15 colon) of 96.5 µM and a TGI (M19-MEL melanoma) of 31.2 µM. For the same compound, the TGI (RXF-631 renal) was 37.2 µM, the TGI (CAKI-1 renal) was 85.5 µM and the TGI (NCI-H522 lung) was 26.1 µM. The TGI (CCRF-CEM leukemia) was 45.5 µM, the TGI (NCI-H460 lung) was 48.9 µM and the TGI (ACHN renal) was 32.4 µM. It also gave a TGI (HOP-18 NSCLC) of 66.5 µM, a TGI (HOP-62 NSCLC) of 33.9 µM and a TGI (IGROV1 ovarian) of 99.5 µM. For the same compound, the TGI (HCC-2998 colon) was 32.4 µM, the TGI (SNB-19 CNS) was greater than 100 µM and the TGI (OVCAR-8 ovarian) was 48.5 µM. For the same compound, the TGI (NCI-H23 lung) was 52.5 µM, the TGI (RXF 393 renal) was 14 µM and the TGI (SF-295 CNS) was 49.7 µM. For the same compound, the TGI (SNB-75 CNS) was 63.6 µM, the TGI (SK-MEL-2 melanoma) was 33.9 µM and the TGI (RPMI-8226 leukemia) was 46.4 µM. The TGI (KM20L2 colon) was greater than 100 µM, the TGI (EKVX NSCLC) was greater than 100 µM and the TGI (UACC-62 melanoma) was 33.4 µM. It also gave a TGI (DMS 273 small cell lung) of 36.4 µM, a TGI (SR leukemia) of 31.8 µM and a TGI (UO-31 renal) of 60.2 µM. It also gave a TGI (LOX IMVI melanoma) of 26.8 µM, a TGI (M14 melanoma) of 23.1 µM and a TGI (OVCAR-5 ovarian) of 72.4 µM. For the same compound, the TGI (SK-OV-3 ovarian) was 87.5 µM, the TGI (K-562 leukemia) was 40.4 µM and the TGI (KM12 colon) was 61 µM. For the same compound, the TGI (A498 renal) was greater than 100 µM, the TGI (OVCAR-4 ovarian) was 70.5 µM and the TGI (HT29 colon) was 44.8 µM. The TGI (SW-620 colon) was 73.7 µM, the TGI (HCT-116 colon) was 25.2 µM and the TGI (HOP-92 NSCLC) was 52.4 µM. For the same compound, the TGI (SN12C renal) was 59.6 µM and the TGI (UACC-257 melanoma) was 29.9 µM.

With `COC(=O)C(C(=O)C(=O)Nc1nc2ccc([N+](=O)[O-])cc2s1)c1nc2ccc(Cl)cc2[nH]c1=O` (configuration not stated) the TGI (SF-268 CNS) was greater than 100 µM, the TGI (DLD-1 colon) was greater than 100 µM and the TGI (MALME-3M melanoma) was greater than 100 µM. The TGI (LXFL 529 NSCLC) was greater than 100 µM, the TGI (DMS 114 small cell lung) was greater than 100 µM and the TGI (SNB-78 CNS) was greater than 100 µM. For the same compound, the TGI (A549 NSCLC) was greater than 100 µM, the TGI (OVCAR-3 ovarian) was greater than 100 µM and the TGI (COLO 205 colon) was greater than 100 µM. For the same compound, the TGI (SK-MEL-5 melanoma) was greater than 100 µM, the TGI (U251 CNS) was greater than 100 µM and the TGI (SK-MEL-28 melanoma) was greater than 100 µM. It also gave a TGI (NCI-H226 lung) greater than 100 µM, a TGI (TK-10 renal) greater than 100 µM and a TGI (786-0 renal) greater than 100 µM. The TGI (MOLT-4 leukemia) was greater than 100 µM, the TGI (HCT-15 colon) was greater than 100 µM and the TGI (M19-MEL melanoma) was greater than 100 µM. For the same compound, the TGI (RXF-631 renal) was greater than 100 µM, the TGI (CAKI-1 renal) was greater than 100 µM and the TGI (NCI-H522 lung) was greater than 100 µM. The TGI (CCRF-CEM leukemia) was greater than 100 µM, the TGI (NCI-H460 lung) was greater than 100 µM and the TGI (ACHN renal) was greater than 100 µM. The TGI (HOP-18 NSCLC) was greater than 100 µM, the TGI (HOP-62 NSCLC) was greater than 100 µM and the TGI (IGROV1 ovarian) was greater than 100 µM. For the same compound, the TGI (HCC-2998 colon) was greater than 100 µM, the TGI (SNB-19 CNS) was greater than 100 µM and the TGI (OVCAR-8 ovarian) was greater than 100 µM. It also gave a TGI (NCI-H23 lung) greater than 100 µM, a TGI (RXF 393 renal) greater than 100 µM and a TGI (SF-295 CNS) greater than 100 µM. The TGI (SNB-75 CNS) was greater than 100 µM, the TGI (SK-MEL-2 melanoma) was greater than 100 µM and the TGI (RPMI-8226 leukemia) was greater than 100 µM. For the same compound, the TGI (KM20L2 colon) was greater than 100 µM, the TGI (HL-60(TB) leukemia) was greater than 100 µM and the TGI (EKVX NSCLC) was greater than 100 µM. It also gave a TGI (UACC-62 melanoma) greater than 100 µM, a TGI (DMS 273 small cell lung) greater than 100 µM and a TGI (SR leukemia) greater than 100 µM. It also gave a TGI (UO-31 renal) greater than 100 µM, a TGI (LOX IMVI melanoma) greater than 100 µM and a TGI (M14 melanoma) greater than 100 µM. For the same compound, the TGI (OVCAR-5 ovarian) was greater than 100 µM, the TGI (SK-OV-3 ovarian) was greater than 100 µM and the TGI (K-562 leukemia) was greater than 100 µM. For the same compound, the TGI (KM12 colon) was greater than 100 µM, the TGI (SF-539 CNS) was greater than 100 µM and the TGI (A498 renal) was greater than 100 µM. The TGI (OVCAR-4 ovarian) was greater than 100 µM, the TGI (HT29 colon) was greater than 100 µM and the TGI (SW-620 colon) was greater than 100 µM. For the same compound, the TGI (HCT-116 colon) was greater than 100 µM, the TGI (SN12C renal) was greater than 100 µM and the TGI (UACC-257 melanoma) was greater than 100 µM.
